Laboratory results: patent publication US20210038602A1, “COMBINATION TREATMENT OF ACUTE MYELOID LEUKEMIA” (Boehringer Ingelheim International GmbH, priority 2018, published 2021)

Tested on: AML cell line MV-4-11B
Test: IncuCyte live cell imaging assay: cell growth (confluence) and apoptosis (Caspase-3/7 green fluorescence) over time
Format: cell-based
Settings: MV-4-11B cells, single compound treatment, vs DMSO control
Method: The analysis is done by the Essen BioScience IncuCyte™ FLR live cell imaging system. It enables observation and quantification of cell behavior over time by automatically gathering and analyzing images around the clock. This live-cell, non-perturbating imaging approach yields kinetic data, all generated within the controlled environment of a standard cell incubator.
MV-4-11B is the AML cell line MV-4-11 from ATCC (CRL-9591) which has achieved a mutation in TP53 (c.742C>T, p.R248W, heterozygous for TP53). MV-4-11B cells were grown in T-75 flasks using RPMI1640 medium supplemented with 10% fetal calf serum and 50 μM mercaptoethanol. Cultures were incubated at 37° C. and 5% CO2 in a humidified atmosphere.
For the IncuCyte live cell imaging assays, cells were plated in 96 well plates, Poly-D-Lysine coated, and were incubated with the respective compounds (BET inhibitor 1-12, volasertib), either alone or in combination. For the detection of apoptotic cells, the Essen BioSciences CellPlayer™ 96 well Kinetic Caspase-3/7 Reagent was added.
To determine cell proliferation, “confluence” (area covered with cells in the wells) was used as readout, to determine the amount of apoptosis (dead cells), the intensity of green fluorescence was used as readout.

In the case of CC[C@@H]1C(=O)N(C)c2cnc(Nc3ccc(C(=O)N[C@H]4CC[C@H](N5CCN(CC6CC6)CC5)CC4)cc3OC)nc2N1C(C)C [volasertib, N-[trans-4-[4-(cyclopropylmethyl)-1-piperazinyl]cyclohexyl]-4-[[(7R)-7-ethyl-5,6,7,8-tetrahydro-5-methyl-8-(1-methylethyl)-6-oxo-2-pteridinyl]amino]-3-methoxy-benzamide], the “Cell growth (confluence)” value (over time (FIGS. 1-12 a)) is reported as “reduced in comparison to DMSO control treated cells” and the “Apoptosis (Caspase-3/7 green fluorescence)” value (over time (FIGS. 1-12 b)) is reported as “increased in comparison to DMSO control treated cells”.
